For 50 compounds, outcome, EC50 and IC50 results are on record in PubChem BioAssay AID179 (DTP/NCI, 2004).

Calls of active or inactive are those of the source.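 Rule for the calls: active = compounds giving half or more protection of infected cells from virus-caused growth loss, again on retest; inactive = the rest.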 Where a SMILES comes first, the peptide text is derived from it. The star is where a group is joined. Cbz = O=C(OCc1ccccc1)*

This test concerns CEM cells HIV-1 protection, formazan growth assay. In words: NCI AIDS Antiviral Assay. As to conditions: for IC50: measured here: growth of uninfected CEM cells. In a few lines:
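Human CEM cells, uninfected and HIV-1-infected, received five drug concentrations, and growth was read by soluble formazan assay. Compounds giving at least 50% protection were retested; reproducible 100% protection defined confirmed active.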

With `CC(C)CCC1(O)O[C@H]2C[C@H]3[C@@H]4CCC5=CC(=O)C=C[C@]5(C)[C@H]4CC[C@]3(C)[C@H]2[C@@H]1C` (stereo partly specified), the outcome was inactive.
Take `COc1ccc2ccccc2c1Br`: the EC50 is more than 200 µM and the IC50 is more than 200 µM.
Regarding `O=C1Nc2ccccc2C1S(=O)(=O)c1ccccc1` (stereo unspecified), the EC50 is more than 138 µM and the IC50 amounted to 110 µM.
As to `FC(F)(F)c1nc(Cl)nc2nc[nH]c12`, the EC50 was more than 200 µM and the IC50 was 97.7 µM.
As to `NC(=O)CCCC(NCc1c2ccccc2nc2ccccc12)C(=O)O` (stereo unspecified), the outcome was inactive.
As to `CC[C@@]12N=C(N(C)C)C[C@]1(O)ON=C2C`, the EC50 was more than 200 µM and the IC50 is more than 200 µM.
In the case of `OC(c1ccc(-c2ccccc2)cc1)C(F)(F)c1nc2ccccc2o1` (stereo unspecified), the EC50 is more than 200 µM and the IC50 came to 34.7 µM.
For `Cc1ccc(NP2(=O)N(Cc3ccc(Cl)cc3)CCCN2Cc2ccc(Cl)cc2)cc1`, the EC50 is more than 200 µM and the IC50 was determined as 11 µM.
Consider `COc1ccc(N=Nc2c(-c3ccccc3)nn(C(=O)CC(=O)Nc3ccccc3Cl)c2-c2ccccc2)cc1`, for which the EC50 was more than 24.5 µM and the IC50 is 22.9 µM.
For `CCCCCCCCCCC(O)C1CCC(C(O)CCC(O)C2CCC(CCCCCCC[C@H](O)CC3=C[C@@H](C)OC3=O)O2)O1` (stereo partly specified) the same measures were more than 7.76 µM and 0.00245 µM.
On to `O=P(c1ccccc1)(c1ccccc1)P(=O)(c1ccccc1)c1ccccc1`, for which the EC50 is more than 200 µM and the IC50 is more than 200 µM.
On to `S=c1sc(-c2ccccc2)c[se]1`, for which the EC50 is more than 50.1 µM and the IC50 is 29.5 µM.
For `Cn1c(=O)c2[nH]c(N/N=N/c3nncs3)nc2n(C)c1=O` the same measures were more than 200 µM and more than 200 µM.
In the case of `C[C@H](CCc1nc(C#N)c(N)o1)[C@H]1CC[C@H]2[C@@H]3[C@@H](O)CC4C[C@@H](O)CC[C@]4(C)[C@H]3C[C@@H](O)[C@]12C` (stereo partly specified), the EC50 was more than 200 µM and the IC50 was 16.6 µM.
As for `CS(=O)(=O)O[C@H]1CN2C[C@@H](O)[C@@H](O)[C@H]2[C@H]1CO`, the EC50 is more than 200 µM and the IC50 is more than 200 µM.
`Cc1ccc(SC(=O)N2C(=S)NC(=NC3CCCCC3)C23CCCCC3)cc1`: the EC50 was more than 200 µM and the IC50 was 32.4 µM.
For `COC(=O)[C@@]12CCCC(=O)[C@@H]1[C@H]1CCCC[C@H]12` the same measures were more than 200 µM and 110 µM.
For `CC(C)=CCCC1(C)C=Cc2c(ccc3c(C)noc23)O1` (stereo unspecified) the same measures were more than 18.2 µM and more than 18.2 µM.
Turning to `N#Cc1c(C#N)c(-c2ccccc2)n(/N=C\c2ccccc2)c1N`, the EC50 is more than 200 µM and the IC50 amounted to 14.5 µM.
Take `Cc1c(C(=O)CC(=O)C(=O)Nc2ccc(Cl)cc2)[n+](=O)c2ccccc2n1[O-]`: the EC50 was more than 12.6 µM and the IC50 was more than 12.6 µM.
`C(#CP(c1ccccc1)c1ccccc1)P(c1ccccc1)c1ccccc1.C(#CP(c1ccccc1)c1ccccc1)P(c1ccccc1)c1ccccc1.C(#CP(c1ccccc1)c1ccccc1)P(c1ccccc1)c1ccccc1.C(#CP(c1ccccc1)c1ccccc1)P(c1ccccc1)c1ccccc1.[Pt].[Pt]`: the EC50 was more than 6.92 µM and the IC50 worked out at 4.79 µM.
Turning to `C1CSCCSCCS1`, the EC50 was more than 39.8 µM and the IC50 is more than 39.8 µM.
As to `CC(=O)SCC1OC(n2cc(C)c(=O)[nH]c2=O)C/C1=N\O` (stereo unspecified), the EC50 is more than 200 µM and the IC50 was more than 200 µM.
`O=C1CC(C(=O)N2CCCCC2)n2c(=O)n(-c3ccccc3)c(=O)n2C1` (stereo unspecified): the EC50 was more than 200 µM and the IC50 was more than 200 µM.
`Nc1ncnc2c1ncn2C1CCC(CO)OC1` (stereo unspecified): the EC50 was more than 200 µM and the half-inhibitory concentration (IC50) was more than 200 µM.
On to `CCOC(=O)Cc1csc(N/N=c2/sc(C=Nc3ccccc3)c(O)n2CC)n1`, for which the EC50 is more than 200 µM and the IC50 was more than 200 µM.
Consider `COc1ccc(-c2cc(-c3ccc4c(c3)CC(C)O4)nc(N)n2)cc1` (stereo unspecified), for which the EC50 is more than 30.2 µM and the IC50 was 20 µM.
On to `COc1ccc(N2NC(c3ccccc3)(c3ccccc3)C(C)C2=O)cc1` (stereo unspecified), for which the EC50 is more than 200 µM and the IC50 worked out at 11 µM.
The matching figures for `CCOC(=O)c1c2ccc(/C=C/c3ccccn3)ccc-2c(C(=O)OCC)c1N`: more than 6.76 µM and more than 6.76 µM.
In the case of `COC(=O)CSc1n[nH]c(-c2ccccc2)n1`, the EC50 is more than 1000 µM and the IC50 was determined as 372 µM.
In the case of `Cc1ccc(/C=C/C(=O)c2sc(-n3nc(-c4ccccc4)cc3-c3ccccc3)nc2C)cc1`, the EC50 was more than 11.2 µM and the IC50 was more than 11.2 µM.
In the case of `c1ccc(CCC[P+](c2ccccc2)(c2ccccc2)c2ccccc2)cc1`, the EC50 is more than 200 µM and the IC50 was determined as 0.692 µM.
For `CCOC(=O)c1c(-c2ccccc2)c(-c2ccccc2)cn1C` the same measures were more than 200 µM and 46.8 µM.
Consider `Fc1ccc(OCc2ccc3nc(-c4ccccc4)c(Cl)nc3c2)cc1`, for which the EC50 was more than 100 µM and the IC50 was more than 100 µM.
For `Cc1ccc(S(=O)(=O)/C(C#N)=C/NC(=S)Nc2ccccc2)cc1`, the EC50 was 170 µM and the IC50 was more than 200 µM.
For `O=c1[nH]nc(Cc2ccccc2)n1/N=C/c1ccccc1O`, the EC50 was more than 200 µM and the IC50 was 85.1 µM.
The matching figures for `N#CC(NCCc1ccccc1)c1ccc(OCCCCCCCCCCOc2ccc(C(C#N)NCCc3ccccc3)cc2)cc1` (stereo unspecified): more than 50.1 µM and 22.9 µM.
As to `CCc1n[nH]c(=O)n1NC(=O)/C=C\C(=O)O`, the EC50 is more than 200 µM and the IC50 was more than 200 µM.
Consider `Cc1ccccc1NC(=O)CC1C(=O)Nc2ccccc2S1=O` (stereo unspecified), for which the EC50 was more than 21.9 µM and the IC50 is more than 21.9 µM.
Consider `O=C1C(=O)c2ccccc2C(O)=C1C(/C=C/c1ccccc1)C1=C(O)c2ccccc2C(=O)C1=O`, for which the EC50 was more than 200 µM and the IC50 was 9.55 µM.
Turning to `CC1=NNC(=O)C1N=Nc1c(C)n(C)n(-c2ccccc2)c1=O` (stereo unspecified), the EC50 is more than 200 µM and the IC50 worked out at 16.6 µM.
For `CNC(=O)O/N=C1\N(C)CN(c2ccccc2)C12CCN(CCCC(=O)c1ccc(F)cc1)CC2`, the EC50 was more than 200 µM and the IC50 was 105 µM.
Turning to `COc1ccc(N2C(=O)C3c4[nH]c5cccc(Cl)c5c4C4CCC(C(C)(C)C)CC4C3C2=O)cc1` (stereo unspecified), the EC50 is more than 200 µM.
In the case of `COc1cc(C2c3cc4c(cc3C(O)C3CCC(=O)N23)OCO4)cc(OC)c1OC` (stereo unspecified), the EC50 is more than 200 µM and the IC50 worked out at 18.6 µM.
The matching figures for `Cc1c2c(n(CC(c3ccccc3)c3ccccc3)c1C)NN=C(C#N)S2(=O)=O`: more than 200 µM and more than 100 µM.
On to `COc1cc(C=Nc2ccc(C(C)C)cc2)cc(OC)c1OC`, for which the EC50 is more than 16.6 µM and the concentration for half-maximal inhibition (IC50) is more than 16.6 µM.
Turning to `O=C(O)C(CS)NCc1c2ccccc2nc2ccccc12` (stereo unspecified), the outcome was inactive.
Take `CCOC(=O)CNC(=O)C(CC(C)C)NC(=O)C1CCCN1C(=O)OCc1ccccc1` (stereo not drawn) (Cbz-Pro-Leu-Gly-OEt; configuration not given here): the EC50 is more than 562 µM and the IC50 stood at 37.2 µM.
`CC1(C)O[C@]2(C=C[C@@H]1O)CCCCO2`: the EC50 was more than 251 µM and the IC50 was more than 251 µM.
`Nc1ncc2c(ncn2CC(O)CO)n1` (stereo unspecified): the EC50 was more than 1200 µM and the IC50 is more than 1200 µM.
